pIC50: −log10 of the molar value. Where two headings read alike, the source gives them in different places.
Tests used:
[1] = system: anaphylactic shock (egg albumin); test: Effect on the Anaphylactic Shock in Mice; format: in vivo, mice (DDY Strain)
Protocol: DDY Strain mice were sensitized by subcutaneous injection of a mixture of 0.1 ml. (100 μg.) egg albumin (Nutritional Biochemical Corp. U.S.A., 5 times crystallized) and 0.1 ml. Freund's complete adjuvant (Difco Co., U.S.A.) in saline. The mice were used for the test 3 months thereafter. The sensitized animals were divided in 3 groups of 4 animals each, which were subcutaneously administered the test compound several times before antigen challenge to cause anaphylactic shock. Group 1 received 100 mg./kg. 19 hours before and 50 mg./kg. 9, 4 and 1 hour before challenge. Group 2 received 100 mg./kg. 9 hours before and 50 mg./kg. 4 and 1 hour before challenge. Group 3 was a control group and received only saline solution.

[2] = system: rats; test: Subacute toxicity, daily doses for 32 consecutive days; format: in vivo; details: 3.1, 12.5, 50 and 200 mg./kg. daily, oral or i.p., 32 days
[3] = biological target: T1, histidine decarboxylase (Rattus norvegicus, UniProt P16453); test: Inhibition of Histidine Decarboxylase (14C-histamine formation); format: biochemical, fetal rats
T1 construct: a crude enzyme preparation obtained from fetal rats; from tissue
T1 sequence (P16453 1-656): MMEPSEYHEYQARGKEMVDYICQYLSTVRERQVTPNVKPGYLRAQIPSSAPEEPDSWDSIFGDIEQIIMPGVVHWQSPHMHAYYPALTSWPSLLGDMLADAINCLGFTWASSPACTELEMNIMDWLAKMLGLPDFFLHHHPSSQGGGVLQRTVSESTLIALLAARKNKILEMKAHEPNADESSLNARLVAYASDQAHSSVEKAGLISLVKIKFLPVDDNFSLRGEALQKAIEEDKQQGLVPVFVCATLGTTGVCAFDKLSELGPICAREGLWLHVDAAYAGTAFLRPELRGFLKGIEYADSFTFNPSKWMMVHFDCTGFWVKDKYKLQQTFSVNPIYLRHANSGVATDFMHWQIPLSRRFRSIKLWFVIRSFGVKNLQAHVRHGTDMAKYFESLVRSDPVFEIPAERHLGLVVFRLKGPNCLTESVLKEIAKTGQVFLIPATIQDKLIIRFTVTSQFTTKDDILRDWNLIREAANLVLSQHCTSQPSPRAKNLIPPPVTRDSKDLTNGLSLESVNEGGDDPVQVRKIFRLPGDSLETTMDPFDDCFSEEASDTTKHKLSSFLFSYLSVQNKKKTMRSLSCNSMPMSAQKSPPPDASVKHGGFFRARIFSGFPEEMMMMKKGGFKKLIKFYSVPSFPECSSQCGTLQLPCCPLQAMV
Protocol: After two hours of incubation at 37° C., the histamine 2-^14 C formed was collected on an ion exchange resin ("Amberlite" CG-50, ammonia type) from which, after washing with water, the histamine was liberated in 1N aqueous ammonia solution and radioactivity was measured.

[4] = Acute toxicity, rats; details: rat, in vivo, printed 'for oral administration', then first of 'respective administration'
Protocol: The acute toxicity was determined for oral and intraperitoneal administration with mice and rats (6 mice and 2 rats in one dose group), and the LD50 value, i.e., the single application dose killing 50% of the test animals, was estimated.

[5] = system: pyrexia induced by TTG No. 2; test: Antipyretic Activity in Pyrexia-Induced Rabbits; format: in vivo, Japanese rabbits; details: 200 mg./kg. oral
Protocol: Common white male Japanese rabbits, 2.0 - 3.0 kg. body weight, were injected through the ear vein with 20 μg./kg. of a pyrexia inducer TTG No. 2, purified polysaccharide preparation obtained from Pseudomonas aeruginosa (marketed by Fujisawa Pharmaceutical Company, Japan), and the body temperature was monitored with a rectal thermister-type thermometer. Three hours prior to the TTG injection four rabbits in each experimental section orally received the test drug in the dose of 200 mg./kg. One group received aspirin in a dose of 100 mg./kg and a control group no drug.

[6] = system: acetic acid-induced stretching movements; test: Analgesic Activity in mice (acetic acid stretching); format: in vivo, mice (DDY Strain); details: control (no drug) 53
Protocol: Male mice of the DDY Strain having mean body weight of 20 g. were divided to the groups of 10 animals each, to which compounds of this invention or aminopyrine in saline solution were administered intraperitoneally (i.p.). The dosage was 200, 50 or 12.5 mg./kg. Then 30 minutes later, 0.2 ml. per 20 g. body weight of 0.7% acetic acid in saline was injected intraperitoneally and the number of characteristic stretching movements counted for 20 minute period and compared with a control group receiving no analgesic.

[7] = system: animals; details: cited from earlier work
[8] = system: animals; details: cited from earlier work; remark: listed apart in the source
[9] = system: histidine decarboxylase; details: cited from earlier work
[10] = Group 1 (100 mg./kg. 19 h, 50 mg./kg. 9, 4, 1 h before), mouse 1, control 5
[11] = Group 2 (100 mg./kg. 9 h, 50 mg./kg. 4, 1 h before), mouse 1, control 5
[12] = 2 hrs. after TTG, control (no drug) 1.2
[13] = 4 hrs. after TTG, control (no drug) 1.6

Compound	Symptoms emerged, time after challenge [1, 10] [min]	Died, time after challenge ([1]; Group 1, mouse 1, control 15) [min]	Symptoms emerged, time after challenge ([1]; Group 1, mouse 2, control 3) [min]	Symptoms emerged, time after challenge [1, 11] [min]	Symptoms emerged, time after challenge ([1]; Group 2, mouse 2, control 3) [min]	Died, time after challenge ([1]; Group 2, mouse 2, control 20) [min]	Symptoms emerged, time after challenge ([1]; Group 2, mouse 3, control 7) [min]	Died, time after challenge ([1]; Group 2, mouse 4, control 20) [min]	disease symptoms or abnormality attributable to drug dosing [2]	weight gain [2]	Antipyretic Activity: Elevation of Body Temperature [5, 12] [°C]	Antipyretic Activity: Elevation of Body Temperature [5, 13] [°C]	Analgesic Activity: Stretching Count (20 minutes) ([6]; 50 mg./kg. i.p.)	Analgesic Activity: Stretching Count (20 minutes) ([6]; 200 mg./kg. i.p.)	further results
O=C(Nc1cc(Cl)c(O)c(Cl)c1)c1ccccc1O [Compound 1]	15	30	20	35	10	30	25	40	no particular disease symptoms or abnornality attributable to the drug dosing was noted	the weight gain was normal	0.6	0.5	11	4	Died, time after challenge ([1]; Group 1, mouse 2, control 20): 35 min; Symptoms emerged, time after challenge ([1]; Group 2, mouse 4, control 3): 20 min; pIC50 [3]: 7.66; LD50 [4]: 2200 mg/kg
CCC(=O)Oc1ccccc1C(=O)Nc1cc(Cl)c(OC(=O)CC)c(Cl)c1 [Compound 33]	10	30	25	20	20	45	30	40	no particular disease symptoms or abnornality attributable to the drug dosing was noted	the weight gain was normal	0.6	0.5	12	5	Symptoms emerged, time after challenge ([1]; Group 1, mouse 3, control 7): 30 min; Died, time after challenge ([1]; Group 2, mouse 1, control 15): 40 min; pIC50 ([3]; pH 6.8, two hours at 37° C., read-out: Histidine Decarboxylase Inhibition ID50): 7.41
Cc1cc(OC(=O)c2c(C)cc(O)cc2O)cc(O)c1C(=O)O [Lecanoric acid, 4'-carboxy-2,3'-dimethyl-4,6,5'-trihydroxyphenylbenzoate]	–	–	–	–	–	–	–	–	–	–	–	–	–	–	hydrolysis in animals [7]: hydrolysed in animals; anti-inflammatory activity (in words) [8]: only weak anti-inflammatory activity; inhibitory activity to histidine decarboxylase (in words) [9]: strong inhibitory activity
